This note sets out measurements from ChEMBL document CHEMBL1921764, “Substrate profiling of IGF-1R and InsR: identification of a potent pentamer substrate” (Bioorg Med Chem Lett, 2011).

Active and inactive are the calls of the source. The calls are words filed in the database; no cut-off is given here. Peptide text beside a SMILES is read from it.

In test [1] the target is Insulin-like growth factor 1 receptor (Homo sapiens) (UniProt P08069). Put plainly: Activity of pre-activated human GST-His6-tagged IGF-1R assessed as compound phosphorylation at 500 uM measured every 2 mins for 60 mins by ADP-Quest assay.
Sequence of Insulin-like growth factor 1 receptor (Homo sapiens) (P08069 31-736 limits assumed): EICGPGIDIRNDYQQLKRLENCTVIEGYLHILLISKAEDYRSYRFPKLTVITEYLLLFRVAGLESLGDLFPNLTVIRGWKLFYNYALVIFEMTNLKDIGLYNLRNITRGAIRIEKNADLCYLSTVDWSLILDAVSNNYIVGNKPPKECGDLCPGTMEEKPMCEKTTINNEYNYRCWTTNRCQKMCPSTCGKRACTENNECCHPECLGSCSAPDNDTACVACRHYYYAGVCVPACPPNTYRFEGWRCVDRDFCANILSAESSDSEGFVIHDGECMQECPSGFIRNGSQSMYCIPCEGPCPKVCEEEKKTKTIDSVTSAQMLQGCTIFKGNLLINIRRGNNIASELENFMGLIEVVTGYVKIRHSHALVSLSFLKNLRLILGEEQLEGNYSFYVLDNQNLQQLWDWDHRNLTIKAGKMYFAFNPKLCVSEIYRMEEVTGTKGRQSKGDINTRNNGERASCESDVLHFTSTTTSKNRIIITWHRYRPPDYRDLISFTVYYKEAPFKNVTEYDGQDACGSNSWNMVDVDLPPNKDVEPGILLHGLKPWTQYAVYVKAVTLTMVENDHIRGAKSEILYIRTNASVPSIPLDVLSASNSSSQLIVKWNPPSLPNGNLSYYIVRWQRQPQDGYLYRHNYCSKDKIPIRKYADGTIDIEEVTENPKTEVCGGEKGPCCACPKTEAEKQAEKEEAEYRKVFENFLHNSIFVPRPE
Sequence of Insulin-like growth factor 1 receptor (Homo sapiens) (P08069 741-1367 limits assumed): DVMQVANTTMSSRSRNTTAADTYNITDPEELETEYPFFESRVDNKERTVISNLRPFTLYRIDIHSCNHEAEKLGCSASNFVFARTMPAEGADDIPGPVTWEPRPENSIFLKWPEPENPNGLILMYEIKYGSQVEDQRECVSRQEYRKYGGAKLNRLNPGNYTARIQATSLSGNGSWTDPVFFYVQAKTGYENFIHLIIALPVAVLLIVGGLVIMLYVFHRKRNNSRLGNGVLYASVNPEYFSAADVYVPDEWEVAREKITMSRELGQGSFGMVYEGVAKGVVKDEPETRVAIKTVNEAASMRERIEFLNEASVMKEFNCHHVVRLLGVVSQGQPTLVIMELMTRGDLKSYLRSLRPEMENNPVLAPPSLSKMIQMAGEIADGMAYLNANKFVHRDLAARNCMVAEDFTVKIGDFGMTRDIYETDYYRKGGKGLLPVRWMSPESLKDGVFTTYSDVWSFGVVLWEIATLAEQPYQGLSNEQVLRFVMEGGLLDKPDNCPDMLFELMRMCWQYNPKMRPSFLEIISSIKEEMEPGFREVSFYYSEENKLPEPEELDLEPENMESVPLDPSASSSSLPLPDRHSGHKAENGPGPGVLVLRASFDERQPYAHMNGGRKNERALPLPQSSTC
The target of test [2] is Insulin receptor (Homo sapiens) (UniProt P06213). In words: Activity of pre-activated human GST-His6-tagged InsR assessed as compound phosphorylation at 500 uM measured every 2 mins for 60 mins by ADP-Quest assay.
Sequence of Insulin receptor (Homo sapiens) (P06213 28-758 limits assumed): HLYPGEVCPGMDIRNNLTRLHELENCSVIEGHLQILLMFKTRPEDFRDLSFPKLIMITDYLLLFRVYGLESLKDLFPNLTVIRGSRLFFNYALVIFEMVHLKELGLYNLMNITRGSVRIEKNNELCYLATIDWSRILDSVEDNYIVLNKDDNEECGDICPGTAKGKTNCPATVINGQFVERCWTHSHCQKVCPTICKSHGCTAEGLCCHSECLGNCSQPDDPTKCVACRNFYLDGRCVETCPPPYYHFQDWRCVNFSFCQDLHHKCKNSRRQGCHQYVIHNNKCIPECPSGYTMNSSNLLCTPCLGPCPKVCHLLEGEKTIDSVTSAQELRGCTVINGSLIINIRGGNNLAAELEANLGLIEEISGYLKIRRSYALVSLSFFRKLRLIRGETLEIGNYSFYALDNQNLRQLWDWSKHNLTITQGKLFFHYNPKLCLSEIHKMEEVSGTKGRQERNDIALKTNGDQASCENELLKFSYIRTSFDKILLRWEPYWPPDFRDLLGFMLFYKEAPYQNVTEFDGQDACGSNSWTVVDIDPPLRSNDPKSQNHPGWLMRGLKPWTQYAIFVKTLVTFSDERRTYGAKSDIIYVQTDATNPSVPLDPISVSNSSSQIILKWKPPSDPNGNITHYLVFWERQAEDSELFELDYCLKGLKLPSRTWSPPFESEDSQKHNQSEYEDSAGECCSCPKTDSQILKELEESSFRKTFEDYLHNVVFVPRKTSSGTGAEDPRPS
Sequence of Insulin receptor (Homo sapiens) (P06213 763-1382 limits assumed): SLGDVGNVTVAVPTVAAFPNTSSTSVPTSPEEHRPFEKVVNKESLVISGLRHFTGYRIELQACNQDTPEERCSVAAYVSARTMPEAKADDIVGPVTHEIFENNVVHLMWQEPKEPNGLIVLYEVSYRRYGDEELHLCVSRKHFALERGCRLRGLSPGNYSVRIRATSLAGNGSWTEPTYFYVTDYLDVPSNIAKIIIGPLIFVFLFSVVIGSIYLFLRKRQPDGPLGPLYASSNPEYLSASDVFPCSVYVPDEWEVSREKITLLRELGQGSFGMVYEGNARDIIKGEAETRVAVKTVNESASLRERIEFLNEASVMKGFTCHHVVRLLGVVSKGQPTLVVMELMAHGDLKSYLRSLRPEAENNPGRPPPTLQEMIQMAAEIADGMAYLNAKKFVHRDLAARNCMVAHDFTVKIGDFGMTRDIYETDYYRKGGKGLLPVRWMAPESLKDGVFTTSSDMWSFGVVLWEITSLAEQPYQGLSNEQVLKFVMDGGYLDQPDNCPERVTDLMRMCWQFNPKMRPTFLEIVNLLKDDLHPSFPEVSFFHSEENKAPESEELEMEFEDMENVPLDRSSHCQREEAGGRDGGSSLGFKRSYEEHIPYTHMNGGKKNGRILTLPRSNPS

Consider H-SPGEYVNI-OH, for which the outcome in test [1] and in test [2] was inactive. In the case of H-PGEYVNI-OH, the outcome in test [1] and in test [2] was inactive. On to H-EQEDEPEGDYFEALE-OH, for which the outcome in test [1] and in test [2] was inactive. For H-KSPGEYVNIE-OH, the result in test [1] and in test [2] was inactive.

On to `N[C@@H](Cc1ccc(O)cc1)C(=O)N[C@@H](Cc1ccccc1)C(=O)N[C@@H](CCC(=O)O)C(=O)O` (H-Tyr-Phe-Glu-OH), for which the result in test [1] and in test [2] was inactive. On to `N[C@@H](CC(=O)O)C(=O)N[C@@H](Cc1ccc(O)cc1)C(=O)N[C@@H](Cc1ccccc1)C(=O)N[C@@H](CCC(=O)O)C(=O)O` (H-DYFE-OH), for which the outcome in test [1] and in test [2] was inactive.

In the case of H-EQEDEPEGAYFEWLE-OH, the result in test [1] and in test [2] was inactive. On to H-SPGEYVNIE-OH, for which the outcome in test [1] and in test [2] was inactive. Take H-GDYFE-OH: the result in test [2] was inactive. On the same count and under the same terms, to `N[C@@H](Cc1ccc(O)cc1)C(=O)N[C@@H](Cc1ccccc1)C(=O)N[C@@H](CCC(=O)O)C(=O)N[C@@H](Cc1c[nH]c2ccccc12)C(=O)O` (H-YFEW-OH) belongs “inactive”. With H-GEYVN-OH, the outcome in test [1] and in test [2] was inactive. For H-KKKSPGEYVNIEAG-OH, the outcome in test [1] and in test [2] was inactive. Regarding H-PGEYVN-OH, the result in test [1] and in test [2] was inactive. Consider H-KKKSPGEYVNAEFG-OH, for which the outcome in test [1] and in test [2] was inactive.
